# Results reported in patent publication US8691837B2, “Substituted imidazo ring systems and methods” (3M Innovative Properties Company, priority 2003, dated 2014).
# Where a name gives a salt, the structure may show the parent alone.
row,Compound,melting point [°C]
1,"CCCc1nc2c(N)nc3ccccc3c2n1CCCCCCCCCCCC(=O)c1ccccc1 (as salt: hydrochloride) [Example 16, 12-(4-Amino-2-propyl-1H-imidazo[4,5-c]quinolin-1-yl)-1-phenyldodecan-1-one hydrochloride]",195 to 196
2,"CCCc1nc2c(N)nc3ccccc3c2n1CCCCCCCCCCCC(=O)N(C)OC (as salt: hydrochloride) [Example 21, 12-(4-Amino-2-propyl-1H-imidazo[4,5-c]quinolin-1-yl)-N-methoxy-N-methyldodecanamide hydrochloride]",156 to 158
3,"CCCCc1nc2c(N)nc3ccccc3c2n1CCCCCC(=O)c1ccccc1 [Example 4, 6-(4-Amino-2-butyl-1H-imidazo[4,5-c]quinolin-1-yl)-1-phenylhexan-1-one]",149 to 151
4,"Nc1nc2ccccc2c2c1ncn2CCCCCC(=O)c1ccccc1 [Example 5, 6-(4-Amino-1H-imidazo[4,5-c]quinolin-1-yl)-1-phenylhexan-1-one]",163 to 165
5,"CC(=O)CCCn1c(C)nc2c(N)nc3ccccc3c21 [Example 11, 5-(4-Amino-2-methyl-1H-imidazo[4,5-c]quinolin-1-yl)pentan-2-one]",194 to 196
6,"CCCCCCC(=O)CCCn1c(CCC)nc2c(N)nc3ccccc3c21 [Example 18, 1-(4-Amino-2-propyl-1H-imidazo[4,5-c]quinolin-1-yl)decan-4-one]",111 to 113
7,"CC(=O)CC(C)(C)Cn1c(C)nc2c(N)nc3ccccc3c21 [Example 24, 5-(4-Amino-2-methyl-1H-imidazo[4,5-c]quinolin-1-yl)-4,4-dimethylpentan-2-one]",223 to 225
8,"CCCc1nc2c(N)nc3ccccc3c2n1CC(C)(C)CC(C)=O [Example 25, 5-(4-Amino-2-propyl-1H-imidazo[4,5-c]quinolin-1-yl)-4,4-dimethylpentan-2-one]",178 to 180
9,"CCCc1nc2c(N)nc3ccccc3c2n1CC(OCC)OCC [Example 29, 1-(2,2-Diethoxyethyl)-2-propyl-1H-imidazo[4,5-c]quinolin-4-amine]",148 to 150
10,"CC(C)(Cn1cnc2c(N)nc3ccccc3c21)CC1(C)OCCO1 [Example 31, 1-[2,2-Dimethyl-3-(2-methyl[1,3]dioxolan-2-yl)propyl]-1H-imidazo[4,5-c]quinolin-4-amine]",153 to 155
11,"CC(=O)CC(C)(C)Cn1cnc2c(N)nc3ccccc3c21 [Example 32, 5-(4-Amino-1H-imidazo[4,5-c]quinolin-1-yl)-4,4-dimethylpentan-2-one]",214 to 216
12,"CCCc1nc2c(N)nc(C)c(C)c2n1CCCC(C)=O [Example 33, 5-(4-Amino-6,7-dimethyl-2-propyl-1H-imidazo[4,5-c]pyridin-1-yl)pentan-2-one]",148.5 to 149.5
13,"CCOCc1nc2c(N)nc3ccccc3c2n1CCCC(=O)OCC [Example 34, Ethyl 4-[4-amino-2-(ethoxymethyl)-1H-imidazo[4,5-c]quinolin-1-yl]butanoate]",129 to 131
14,"CCOCc1nc2c(N)nc3ccccc3c2n1CCCC(=O)N(C)OC [Example 35, 4-[4-Amino-2-(ethoxymethyl)-1H-imidazo[4,5-c]quinolin-1-yl]-N-methoxy-N-methylbutanamide]",163 to 165
15,"CCOCc1nc2c(N)nc3ccccc3c2n1CC(=O)CC [Example 37, 1-[4-Amino-2-(ethoxymethyl)-1H-imidazo[4,5-c]quinolin-1-yl]butan-2-one]",187 to 188

# The next lines start with the values.
row,melting point [°C],Compound
1,173 to 176,"CCCCc1nc2c(N)nc3ccccc3c2n1CCCC(C)=O [Example 2, 5-(4-Amino-2-butyl-1H-imidazo[4,5-c]quinolin-1-yl)pentan-2-one]"
2,193 to 195,"Cc1nc2c(N)nc3ccccc3c2n1CCCC1(C)OCCO1 [Example 6, 2-Methyl-1-[3-(2-methyl-[1,3]dioxolan-2-yl)propyl]-1H-imidazo[4,5-c]quinolin-4-amine]"
3,195 to 196.5,"CCc1nc2c(N)nc3ccccc3c2n1CCCC1(C)OCCO1 [Example 7, 2-Ethyl-1-[3-(2-methyl-[1,3]dioxolan-2-yl)propyl]-1H-imidazo[4,5-c]quinolin-4-amine]"
4,184 to 186,"CCCc1nc2c(N)nc3ccccc3c2n1CCCC1(C)OCCO1 [Example 8, 1-[3-(2-Methyl-[1,3]dioxolan-2-yl)propyl]-2-propyl-1H-imidazo[4,5-c]quinolin-4-amine]"
5,169 to 171.5,"CCCCc1nc2c(N)nc3ccccc3c2n1CCCC1(C)OCCO1 [Example 9, 2-Butyl-1-[3-(2-methyl-[1,3]dioxolan-2-yl)propyl]-1H-imidazo[4,5-c]quinolin-4-amine]"
6,150 to 152,"CCOCc1nc2c(N)nc3ccccc3c2n1CCCC1(C)OCCO1 [Example 10, 2-Ethoxymethyl-1-[3-(2-methyl-[1,3]dioxolan-2-yl)propyl]-1H-imidazo[4,5-c]quinolin-4-amine]"
7,206 to 208,"CCc1nc2c(N)nc3ccccc3c2n1CCCC(C)=O [Example 12, 5-(4-Amino-2-ethyl-1H-imidazo[4,5-c]quinolin-1-yl)pentan-2-one]"
8,176 to 177,"CCCc1nc2c(N)nc3ccccc3c2n1CCCC(C)=O [Example 13, 5-(4-Amino-2-propyl-1H-imidazo[4,5-c]quinolin-1-yl)pentan-2-one]"
9,173 to 175,"CCOCc1nc2c(N)nc3ccccc3c2n1CCCC(C)=O [Example 14, 5-(4-Amino-2-ethoxymethyl-1H-imidazo[4,5-c]quinolin-1-yl)pentan-2-one]"
10,161 to 163,"CCCc1nc2c(N)nc3ccccc3c2n1CCCCCC(C)=O [Example 15, 7-(4-Amino-2-propyl-1H-imidazo[4,5-c]quinolin-1-yl)heptan-2-one]"
11,136 to 138,"CCCc1nc2c(N)nc3ccccc3c2n1CCCC(=O)CC(C)C [Example 17, 1-(4-Amino-2-propyl-1H-imidazo[4,5-c]quinolin-1-yl)-6-methylheptan-4-one]"
12,134 to 135,"CCCc1nc2c(N)nc3ccccc3c2n1CCCCCC(=O)N(C)OC [Example 19, 6-(4-Amino-2-propyl-1H-imidazo[4,5-c]quinolin-1-yl)-N-methoxy-N-methylhexanamide]"
13,163 to 165,"CCCc1nc2c(N)nc3ccccc3c2n1CCCC(=O)N(C)OC [Example 20, 4-(4-Amino-2-propyl-1H-imidazo[4,5-c]quinolin-1-yl)-N-methoxy-N-methylbutyramide]"
14,209 to 211,"Cc1nc2c(N)nc3ccccc3c2n1CC(C)(C)CC1(C)OCCO1 [Example 22, 1-[2,2-Dimethyl-3-(2-methyl-[1,3]dioxolan-2-yl)propyl]-2-methyl-1H-imidazo[4,5-c]quinolin-4-amine]"
15,186 to 188,"CCCc1nc2c(N)nc3ccccc3c2n1CC(C)(C)CC1(C)OCCO1 [Example 23, 1-[2,2-Dimethyl-3-(2-methyl-[1,3]dioxolan-2-yl)propyl]-2-propyl-1H-imidazo[4,5-c]quinolin-4-amine]"
16,156 to 157,"CCCc1nc2c(N)nc3ccccc3c2n1CCC(=O)OCC [Example 26, Ethyl 3-(4-amino-2-propyl-1H-imidazo[4,5-c]quinolin-1-yl)propionate]"
17,154 to 156,"CCCc1nc2c(N)nc3ccccc3c2n1CCCC(=O)OCC [Example 27, Ethyl 4-(4-amino-2-propyl-1H-imidazo[4,5-c]quinolin-1-yl)butyrate]"
18,112 to 113,"CCCc1nc2c(N)nc3ccccc3c2n1CCCCCC(=O)OCC [Example 28, Ethyl 6-(4-amino-2-propyl-1H-imidazo[4,5-c]quinolin-1-yl)hexanoate]"
19,148 to 150,"CCCc1nc2c(N)nc3ccccc3c2n1CCC(OCC)OCC [Example 30, 1-(3,3-Diethoxypropyl)-2-propyl-1H-imidazo[4,5-c]quinolin-4-amine]"
20,150 to 151,"CCCc1nc2c(N)nc3ccccc3c2n1CCCCC(=O)N(C)OC [Example 36, 5-(4-Amino-2-propyl-1H-imidazo[4,5-c]quinolin-1-yl)-N-methoxy-N-methylpentanamide]"
